Experimental findings from patent US8772504B2, “Substituted benzoxazole, benzimidazole, oxazolopyridine and imidazopyridine derivatives as gamma secretase modulators” (Janssen Pharmaceuticals, Inc., priority 2009, dated 2014) are described below.

One experiment has as its system Aβtotal. Put plainly: Screening for γ-secretase-modulating activity, Method 2: Aβtotal Alphalisa on SKNBE2 cell supernatant. The format is cell-based. The settings on record: Method 2, Table 3c, SKNBE2 cells carrying APP 695 wild type, overnight incubation. An outline of the steps:
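SKNBE2 cells expressing wild-type APP695, plated at 10^4 cells/well with compound at several concentrations and incubated overnight at 37° C. Aβ42 (C-terminal capture, N-terminal biotinylated detection) and Aβtotal (N-terminal/4G8 pair) measured in supernatant by AlphaLISA. IC50 from 4-parameter fit of percent of compound-free control.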

The next experiment has as its system Aβ42. As to the kind of experiment: In vivo efficacy Method 1: brain soluble Aβ42 by ELISA. The settings on record: Table 4a, single oral dose, overnight fasted animals, sacrificed after 4 h, soluble fraction of brain homogenates. On the set-up: species or system mouse. Put shortly: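 Overnight-fasted rodents or APP transgenic mice given a single oral dose in 20% Captisol or 20% hydroxypropyl β-cyclodextrin and sacrificed after 4 h. Right-hemisphere homogenate high-speed supernatant used: neutralized portion for Aβtotal, Oasis HLB-purified and concentrated eluate for Aβ42, both quantified by ELISA.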

For the molecule `COc1cc(Nc2cccc3c2nc(-c2ccc(F)cc2)n3C)ccc1-n1cnc(C)c1` [Compound 1], inhibition with Aβtotal (Homo sapiens) was half-maximal at 0.59 µM (IC50). The “Aβ42 (% Ctrl) _Mean” value in the experiment on Aβ42 is 57 % Ctrl.

`COc1cc(Nc2cccc3c2nc(-c2ccc(F)cc2)n3C)ccc1-n1cnc(C)n1` [Compound 4] had an IC50 in the experiment with Aβtotal (Homo sapiens) of over 10 µM. The “Aβ42 (% Ctrl) _Mean” value in the experiment with Aβ42 is on record as 64 % Ctrl.

Molecule `COc1cc(Nc2nccc3c2nc(-c2ccc(F)cc2)n3C)ccc1-n1cnc(C)c1` [Compound 8] gave an IC50 with Aβtotal (Homo sapiens) of over 10 µM. In the experiment on Aβ42, the “Aβ42 (% Ctrl) _Mean” value worked out at 46 % Ctrl.

In turn, `COc1nc(Nc2cccc3c2nc(-c2ccc(F)cc2)n3C)ccc1-n1cnc(C)c1` [Compound 15] returned an IC50 in the experiment on Aβtotal (Homo sapiens) of 7.94 µM. Further, the “Aβ42 (% Ctrl) _Mean” value in the experiment with Aβ42 was found to be 31 % Ctrl.

Molecule `CCn1c(CC2CC2)nc2c(Nc3ccc(-n4cnc(C)c4)c(OC)c3)cccc21` [Compound 36] gave an IC50 in the experiment with Aβtotal of 7.41 µM. Moreover, the “Aβ42 (% Ctrl) _Mean” value with Aβ42 was 79 % Ctrl.

`COc1cc(Nc2cccc3c2nc(Oc2ccccc2)n3C)ccc1-n1cnc(C)c1` [Compound 61] displayed an IC50 in the experiment on Aβtotal of 8.51 µM. Further, the “Aβ42 (% Ctrl) _Mean” value with Aβ42 came out at 89 % Ctrl.

Consider `Cc1cn(-c2ccc(Nc3cccc4c3nc(-c3ccc(F)cc3)n4C)cc2F)cn1` [Compound 67], for which, in the experiment with Aβtotal, the IC50 is over 10 µM. Besides, the “Aβ42 (% Ctrl) _Mean” value in the experiment on Aβ42 is on record as 71 % Ctrl.

For `Cc1ncn(-c2ccc(Nc3cccc4c3nc(-c3ccc(F)cc3)n4C(C)C)cc2)n1.Cl.Cl` [Compound 73], the IC50 in the experiment with Aβtotal is over 10 µM. In addition, the “Aβ42 (% Ctrl) _Mean” value with Aβ42 is 87 % Ctrl.

For `COc1cc(Nc2cccc3c2nc(-c2ccc(F)cc2)n3C(C)C)ccc1-n1cnc(C)n1.Cl.Cl` [Compound 75], the IC50 in the experiment with Aβtotal was 7.76 µM. In addition, the “Aβ42 (% Ctrl) _Mean” value in the experiment on Aβ42 was 67 % Ctrl.

In the case of `Cc1ncn(-c2ccc(Nc3cccc4c3nc(-c3ccc(F)cc3)n4C(C)C)cn2)n1` [Compound 76], in the experiment on Aβtotal, the IC50 is over 10 µM. Moreover, the “Aβ42 (% Ctrl) _Mean” value with Aβ42 is listed as 86 % Ctrl.

For the molecule `COc1cc(Nc2nccc3c2nc(-c2ccc(F)cc2)n3C)ccc1-n1cnc(C)n1` [Compound 92], 4.27 µM corresponded to half-maximal inhibition in the experiment with Aβtotal (IC50). The “Aβ42 (% Ctrl) _Mean” value in the experiment with Aβ42 is 60 % Ctrl.

As for `COc1cc(Nc2cc(C(C)C)nc3c2nc(-c2ccc(F)cc2)n3C)ccc1-n1cnc(C)n1` [Compound 110], the IC50 in the experiment on Aβtotal (Homo sapiens) was over 10 µM.

`COc1cc(-c2nc3c(Nc4ccc(-n5cnc(C)n5)c(OC)c4)nccc3n2C)ccc1Cl` [Compound 114] returned an IC50 in the experiment with Aβtotal (Homo sapiens) of 3.89 µM. This counts as single-digit micromolar.

`COc1nc(Nc2cc(F)cc3c2nc(-c2ccc(F)cc2)n3C)ccc1-n1cnc(C)c1` [Compound 115] yielded a 50% inhibitory concentration (IC50) in the experiment with Aβtotal of over 10 µM. Moreover, the “Aβ42 (% Ctrl) _Mean” value with Aβ42 is given as 97 % Ctrl.

Molecule `COc1cc(Nc2nccc3c2nc(-c2ccccc2C(F)(F)F)n3C)ccc1-n1cnc(C)n1` [Compound 130] had a half-inhibitory concentration (IC50) in the experiment on Aβtotal of over 10 µM. Besides, in the experiment on Aβ42, the “Aβ42 (% Ctrl) _Mean” value is on record as 75 % Ctrl.

Consider `COc1cc(Nc2nc(C)cc3c2nc(-c2ccc(F)cc2)n3C)ccc1-n1cnc(C)n1` [Compound 164], for which the IC50 in the experiment on Aβtotal is over 10 µM. In the experiment on Aβ42, the “Aβ42 (% Ctrl) _Mean” value worked out at 72 % Ctrl.
